Results published in patent US20240376120A1, “CAMPTOTHECIN COMPOUND, PREPARATION METHOD THEREFOR AND USE THEREOF” (priority 2021, published 2024).
Where two headings read alike, the source gives them in different places.

Legend:
[1] = system: MCF-7 cells (human breast cancer cells); assay: MCF-7 cell proliferation inhibitory assay (CellTiter-Glo); format: cell-based; conditions: Homo sapiens
Procedure: • 1). […] Resuspend an appropriate amount of cell suspension to 4000 cells/100 μL according to the count, mixed well and then put the corresponding number of cells into a 96-well plate by pipette. • 3). Each hole of the edge was sealed with 100 μL DPBS and put into an incubator for culture. • 4). Day 1 drug addition: Prepare the storage solution of the compound to be tested 1 hour in advance. 24 h after plating, the culture medium was gradiently diluted to a concentration twice the final concentration of each group. Take out the plated cells from the incubator and add 100 μL of the corresponding 2-fold concentration medium to each well by pipette.
Day 1 detected: Take out the plate to be tested and an appropriate amount of CTG in advance and rewarm it at room temperature in the dark. 50 μL of CTG was added to each well at 24 h. Shake with the oscillator for 5 minutes, and after balancing in the dark for 5 minutes, detect the luminescence value with a microplate reader; The mixture was shaken for 5 min, and after equilibration in the dark for 5 min, the luminescence value was detected with ELISA. • 6). Day 4 detection: Take an appropriate amount of CTG 1 h in advance and rewarm it at room temperature in the dark. At the same time, take out the plate to be tested from the incubator and leave it to equilibrate at room temperature for 30 minutes; 72 h after adding the drug, 100 μL of culture medium was sucked out with pipette carefully from each cell well, and 50 μL of CTG was added. The mixture was shaken for 5 min, and after equilibration in the dark for 5 min, the luminescence value was detected with ELISA analyzer. • 7). Data analysis and processed.
Collect data and convert it into survival rate: Inhibition rate (%)=(100−(OD value of compound-OD value on the first day)/(OD value of control well-OD value on the first day))×100%
(§1) Input the compound into graphpad prism to obtain the corresponding IC50 value.

[2] = system: MDA-MB-231 cells (human breast cancer cells); assay: MDA-MB-231 cell proliferation inhibitory assay (CellTiter-Glo); format: cell-based; conditions: Homo sapiens
Procedure: (§2) • 1). […] Resuspend an appropriate amount of cell suspension to 3000 cells/100 μL according to the count, mixed well and then put the corresponding number of cells into a 96-well plate by pipette. • 3). Each hole of the edge was sealed with 100 μL DPBS and put into an incubator for culture. • 4). Day 1 drug addition: Prepare the storage solution of the compound to be tested 1 hour in advance. 24 h after plating, the culture medium was gradiently diluted to a concentration twice the final concentration of each group. Take out the plated cells from the incubator and add 100 μL of the corresponding 2-fold concentration medium to each well by pipette. • 5). Day 1 detected: Take out an appropriate amount of CTG 1 h in advance and the plate was allowed to equilibrate at room temperature for 30 min. 100 μL of CTG was added to each well and shaken for 5 mins, and then standed in the dark for 5 mins, the luminescence value was detected by ELISA. • 6). Day 4 detection: Take an appropriate amount of CTG 1 h in advance and rewarm it at room temperature in the dark. At the same time, take out the plate to be tested from the incubator and leave it to equilibrate at room temperature for 30 minutes; 72 h after adding the drug, 100 μL of culture medium was sucked out with pipette carefully from each cell well, and 100 μL of CTG was added. The mixture was shaken for 5 min, and after equilibration in the dark for 5 min, the luminescence value was detected with ELISA. • 7). Analyze data and write detailed experimental records.
as §1

[3] = system: MDA-MB-435s cells (human melanoma cells); assay: MDA-MB-435s cell proliferation inhibitory assay (CellTiter-Glo); format: cell-based; conditions: Homo sapiens
Procedure: as §2
Collect data and convert it into survival rate: Inhibition rate (%)=(100−(OD value of compound−OD value on the first day)/(OD value of control well-OD value on the first day))×100%
as §1

in vitro = conditions: human, Caco-2
Procedure: Day 0 plated: After digesting the target cells in the logarithmic growth phase, make a single cell suspension and count. • 2). Took out the corresponding number of transwell chambers and placed them in a 24-well plate, added 200 μL PBS to the upper chamber, incubated for 10 mins, and removed the PBS from the upper chamber by pipette. • 3). According to the count, took an appropriate amount of cell suspension and resuspended it to 5000 cells/200 μL, mixed well and added it to the upper chamber of the transwell, and added 600 μL of complete culture medium to the lower chamber. • 4). medium exchanged on DAY1: The upper chamber and the lower chamber were exchanged with complete culture medium containing 0.1 mg/mL ascorbic acid for 9 days continuously, and the resistance value of membrane expansion was measured. […] Collected the liquid in the upper chamber and the lower chamber for detection. • 7). Calculated Papp according to the formula “Papp=dQ/(dt×A×C0)”. dQ/dt was the transport amount of drugs per unit time, which was the slope of the linear regression of cumulative drug release amount Q versus time t. A was the bottom area of the Transwell orifice plate membrane, and the bottom area was 0.33 cm^2 of 24-well plate in this experiment. Co was the initial concentration of drugs in the upper chamber (μg mL-1).

[4] = MCF7, 72 h, read-out: Proliferation inhibition IC50
[5] = MDA-MB-231, 72 h, read-out: Proliferation inhibition IC50
[6] = MDA-MB-435S, 72 h, read-out: Proliferation inhibition IC50
[7] = MCF7, MCF-7 cells, 72 h after adding the drug, Table 1, read-out: Proliferation inhibition IC50

Row | SMILES | IC50 [1, 4] [nM] | IC50 [2, 5] [nM] | IC50 [3, 6] [nM] | other results
1 | CC[C@@]1(O)C(=O)OCc2c1cc1n(c2=O)Cc2c-1nc1cc(F)c(OC)cc1c2[C@H](C)O [Example 30c] | 8.1 | 12.2 | 3.8 | 
2 | CC[C@@]1(O)C(=O)OCc2c1cc1n(c2=O)Cc2c-1nc1cc(F)c(F)cc1c2[C@@H](C)N [Example 33b] | 8.5 | 24.3 | 0.85 | 
3 | CC[C@@]1(O)C(=O)OCc2c1cc1n(c2=O)Cc2c-1nc1cc(F)c(C)cc1c2[C@@H]1CCN1 [Example 38a] | 5.6 | 16.6 | 1.12 | 
4 | CC[C@@]1(O)C(=O)OCc2c1cc1n(c2=O)Cc2c-1nc1ccc(C(F)F)cc1c2[C@@H](C)N [Example 32b] | 5.5 | 20.2 | 1.85 | 
5 | CC[C@H](N)c1c2c(nc3ccccc13)-c1cc3c(c(=O)n1C2)COC(=O)[C@]3(O)CC [Example 9] | 25.2 | 310 | 25.3 | 
6 | CC[C@@H](N)c1c2c(nc3ccccc13)-c1cc3c(c(=O)n1C2)COC(=O)[C@]3(O)CC [Example 9R] | 55.3 | 180 | 15.3 | 
7 | CC[C@@]1(O)C(=O)OCc2c1cc1n(c2=O)Cc2c-1nc1cc(F)c(C)c(C)c1c2[C@@H](C)N [Example 29b] | 2.1 | 6.6 | 0.72 | 
8 | CC[C@@]1(O)C(=O)OCc2c1cc1n(c2=O)Cc2c-1nc1cc(F)c(C)cc1c2[C@H](C)NC(=O)[C@H](C)O [Example 14] | 8.3 | 88.6 | 3.8 | 
9 | CC[C@@]1(O)C(=O)OCc2c1cc1n(c2=O)Cc2c-1nc1cc(F)c(C)cc1c2C(C)(C)N [Example 7] | 20.2 | 320 | 162 | 
10 | CC[C@@]1(O)C(=O)OCc2c1cc1n(c2=O)Cc2c-1nc1cc(F)c(C)cc1c2CN [Compound A, reference compound] |  |  |  | IC50 [1, 7]: 15.3 nM; IC50 ([1]; MCF7, MCF-7 cells, comparative Table 4, read-out: MCF-7 Proliferation inhibition IC50): 15.3 nM; IC50 ([2]; MDA-MB-231 cells, 72 h after adding the drug, Table 2, read-out: Proliferation inhibition IC50): 260 nM; IC50 ([2]; MDA-MB-231 cells, comparative Table 4, read-out: MDA-MB-231 Proliferation inhibition IC50): 260 nM; Papp A→B at 180 min, 100 μg/mL (in vitro): 68.8 ×10⁻⁶ cm/s; IC50 ([3]; MDA-MB-435s cells, 72 h after adding the drug, Table 3, read-out: Proliferation inhibition IC50): 21.4 nM; IC50 ([3]; MDA-MB-435s cells, comparative Table 4, read-out: MDA-MB-435s Proliferation inhibition IC50): 21.4 nM
11 | CC[C@@]1(O)C(=O)OCc2c1cc1n(c2=O)Cc2c-1nc1cc(F)c(C)cc1c2[C@H](C)NCCN(C)C [Example 25a] | 25.6 | 40.2 | 6.3 | 
12 | CC[C@@]1(O)C(=O)OCc2c1cc1n(c2=O)Cc2c-1nc1cc(F)c(C)cc1c2C1CNC1 [Example 37] | 5.1 | 90.8 | 2.33 | 
13 | CC[C@@]1(O)C(=O)OCc2c1cc1n(c2=O)Cc2c-1nc1cc(F)c(C)cc1c2[C@@H](C)NC(=O)CO [Example 13b] |  | 130 | 3.9 | IC50 [1, 7]: 25.6 nM; Papp A→B at 180 min, 100 μg/mL (in vitro): 56.1 ×10⁻⁶ cm/s
14 | CC[C@@]1(O)C(=O)OCc2c1cc1n(c2=O)Cc2c-1nc1ccc(OC)cc1c2[C@H](C)O [Example 31c] | 10.2 | 18.3 | 5.8 | 
15 | CC[C@@]1(O)C(=O)OCc2c1cc1n(c2=O)Cc2c-1nc1cc(F)c(C)cc1c2[C@H]1CCN1 [Example 38b] | 2 | 6.2 | 0.65 | 
16 | CC[C@@]1(O)C(=O)OCc2c1cc1n(c2=O)Cc2c-1nc1ccc(O)cc1c2C(C)O (some centres unmarked) [Example 12] | 50.3 | 1200 | 59.3 | 
17 | CC[C@@]1(O)C(=O)OCc2c1cc1n(c2=O)Cc2c-1nc1cc(F)c(C)cc1c2[C@H](C)NC(C)=O [Compound 1f-2] | 11.6 | 74.2 | 3.5 | 
